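At the GI50, growth is halved. TGI marks complete inhibition of growth.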
Key:
Experiment in all cases: growth of human tumour cells (NCI), 384-well format
TK-10 renal = test system: TK-10 renal
UACC-257 melanoma = test system: UACC-257 melanoma
HOP-92 NSCLC = test system: HOP-92 NSCLC
RXF 393 renal = test system: RXF 393 renal
NCI-H460 NSCLC = test system: NCI-H460 NSCLC
OVCAR-4 ovarian = test system: OVCAR-4 ovarian
K-562 leukemia = test system: K-562 leukemia
A549 NSCLC = test system: A549 NSCLC
MDA-MB-468 breast = test system: MDA-MB-468 breast
SNB-19 CNS = test system: SNB-19 CNS
NCI-H322M lung = test system: NCI-H322M lung
HT29 colon = test system: HT29 colon
CCRF-CEM leukemia = test system: CCRF-CEM leukemia
OVCAR-3 ovarian = test system: OVCAR-3 ovarian
SN12C renal = test system: SN12C renal
HOP-62 NSCLC = test system: HOP-62 NSCLC
HS 578T breast = test system: HS 578T breast
MOLT-4 leukemia = test system: MOLT-4 leukemia
SK-MEL-5 melanoma = test system: SK-MEL-5 melanoma
MCF7 breast = test system: MCF7 breast
COLO 205 colon = test system: COLO 205 colon
SR leukemia = test system: SR leukemia
NCI/ADR-RES ovarian = test system: NCI/ADR-RES ovarian
CAKI-1 renal = test system: CAKI-1 renal
BT-549 breast = test system: BT-549 breast
OVCAR-8 ovarian = test system: OVCAR-8 ovarian
OVCAR-5 ovarian = test system: OVCAR-5 ovarian
A498 renal = test system: A498 renal
PC-3 prostate = test system: PC-3 prostate
LOX IMVI melanoma = test system: LOX IMVI melanoma
SF-539 CNS = test system: SF-539 CNS
HCC-2998 colon = test system: HCC-2998 colon
SNB-75 CNS = test system: SNB-75 CNS
RPMI-8226 leukemia = test system: RPMI-8226 leukemia
UACC-62 melanoma = test system: UACC-62 melanoma
SK-MEL-28 melanoma = test system: SK-MEL-28 melanoma
MALME-3M melanoma = test system: MALME-3M melanoma
MDA-MB-435 melanoma = test system: MDA-MB-435 melanoma
HL-60(TB) leukemia = test system: HL-60(TB) leukemia
M14 melanoma = test system: M14 melanoma
SK-OV-3 ovarian = test system: SK-OV-3 ovarian
786-0 renal = test system: 786-0 renal
KM12 colon = test system: KM12 colon
NCI-H226 lung = test system: NCI-H226 lung
IGROV1 ovarian = test system: IGROV1 ovarian
SW-620 colon = test system: SW-620 colon
T-47D breast = test system: T-47D breast
NCI-H23 lung = test system: NCI-H23 lung
MDA-MB-231 breast = test system: MDA-MB-231 breast
ACHN renal = test system: ACHN renal
DU-145 prostate = test system: DU-145 prostate
UO-31 renal = test system: UO-31 renal
SF-268 CNS = test system: SF-268 CNS
EKVX NSCLC = test system: EKVX NSCLC
NCI-H522 lung = test system: NCI-H522 lung
HCT-15 colon = test system: HCT-15 colon
SF-295 CNS = test system: SF-295 CNS

How did the GI50 (TK-10 renal) turn out when `CN1C(=O)C(C)(C)Oc2c(-c3cn(C)c(=O)c4[nH]ccc34)cc(S(C)(=O)=O)cc21` was run?
Its GI50 is 279 nM.

What about the TGI (TK-10 renal) of the same compound?
The TGI was 1170 nM.

And the GI50 (UACC-257 melanoma)?
Its GI50 is 206 nM.

And the TGI (UACC-257 melanoma)?
The TGI was 1330 nM.

And the GI50 (HOP-92 NSCLC)?
The GI50 was 149 nM.

And the TGI (HOP-92 NSCLC)?
Its TGI is 1850 nM.

What about the GI50 (RXF 393 renal) of the same compound?
The GI50 was 1730 nM.

What about the TGI (RXF 393 renal) of the same compound?
The TGI was 10700 nM.

And the GI50 (NCI-H460 NSCLC)?
The GI50 was 1160 nM.

And the TGI (NCI-H460 NSCLC)?
The TGI was 10400 nM.

What about the GI50 (OVCAR-4 ovarian) of the same compound?
The GI50 was 114 nM.

And the TGI (OVCAR-4 ovarian)?
The TGI was 346 nM.

What about the GI50 (K-562 leukemia) of the same compound?
The GI50 was 268 nM.

What about the TGI (K-562 leukemia) of the same compound?
Its TGI is 5650 nM.

And the GI50 (A549 NSCLC)?
The GI50 was 389 nM.

What about the TGI (A549 NSCLC) of the same compound?
The TGI was 7080 nM.

What about the GI50 (MDA-MB-468 breast) of the same compound?
The GI50 was 114 nM.

What about the TGI (MDA-MB-468 breast) of the same compound?
Its TGI is 439 nM.

And the GI50 (SNB-19 CNS)?
The GI50 was 423 nM.

What about the TGI (SNB-19 CNS) of the same compound?
Its TGI is 7130 nM.

What about the GI50 (NCI-H322M lung) of the same compound?
Its GI50 is 441 nM.

What about the TGI (NCI-H322M lung) of the same compound?
Its TGI is 3900 nM.

What about the GI50 (HT29 colon) of the same compound?
Its GI50 is 196 nM.

And the TGI (HT29 colon)?
Its TGI is 7840 nM.

And the GI50 (CCRF-CEM leukemia)?
The GI50 was 174 nM.

What about the TGI (CCRF-CEM leukemia) of the same compound?
Its TGI is 1390 nM.

What about the GI50 (OVCAR-3 ovarian) of the same compound?
Its GI50 is 232 nM.

What about the TGI (OVCAR-3 ovarian) of the same compound?
The TGI was 1180 nM.

What about the GI50 (SN12C renal) of the same compound?
The GI50 was 669 nM.

What about the TGI (SN12C renal) of the same compound?
The TGI was 3550 nM.

What about the GI50 (HOP-62 NSCLC) of the same compound?
The GI50 was 287 nM.

And the TGI (HOP-62 NSCLC)?
Its TGI is 2270 nM.

And the GI50 (HS 578T breast)?
Its GI50 is 65.2 nM.

And the TGI (HS 578T breast)?
Its TGI is 349 nM.

What about the GI50 (MOLT-4 leukemia) of the same compound?
The GI50 was 220 nM.

And the TGI (MOLT-4 leukemia)?
The TGI was 1010 nM.

And the GI50 (SK-MEL-5 melanoma)?
Its GI50 is 178 nM.

And the TGI (SK-MEL-5 melanoma)?
Its TGI is 1140 nM.

What about the GI50 (MCF7 breast) of the same compound?
The GI50 was 84.7 nM.

What about the TGI (MCF7 breast) of the same compound?
The TGI was 949 nM.

And the GI50 (COLO 205 colon)?
The GI50 was 228 nM.

What about the TGI (COLO 205 colon) of the same compound?
The TGI was 1390 nM.

What about the GI50 (SR leukemia) of the same compound?
The GI50 was 72.8 nM.

What about the TGI (SR leukemia) of the same compound?
Its TGI is 531 nM.

And the GI50 (NCI/ADR-RES ovarian)?
The GI50 was 5650 nM.

And the TGI (NCI/ADR-RES ovarian)?
The TGI was 45900 nM.

And the GI50 (CAKI-1 renal)?
Its GI50 is 229 nM.

And the TGI (CAKI-1 renal)?
The TGI was 2150 nM.

And the GI50 (BT-549 breast)?
Its GI50 is 164 nM.

And the TGI (BT-549 breast)?
The TGI was 785 nM.

And the GI50 (OVCAR-8 ovarian)?
Its GI50 is 235 nM.

What about the TGI (OVCAR-8 ovarian) of the same compound?
The TGI was 1190 nM.

What about the GI50 (OVCAR-5 ovarian) of the same compound?
Its GI50 is 271 nM.

And the TGI (OVCAR-5 ovarian)?
The TGI was 2240 nM.

What about the GI50 (A498 renal) of the same compound?
Its GI50 is 381 nM.

What about the TGI (A498 renal) of the same compound?
Its TGI is 11500 nM.

What about the GI50 (PC-3 prostate) of the same compound?
The GI50 was 1040 nM.

What about the TGI (PC-3 prostate) of the same compound?
The TGI was 50700 nM.

And the GI50 (LOX IMVI melanoma)?
The GI50 was 157 nM.

What about the TGI (LOX IMVI melanoma) of the same compound?
The TGI was 327 nM.

And the GI50 (SF-539 CNS)?
Its GI50 is 274 nM.

And the TGI (SF-539 CNS)?
The TGI was 1050 nM.

What about the GI50 (HCC-2998 colon) of the same compound?
The GI50 was 150 nM.

What about the TGI (HCC-2998 colon) of the same compound?
Its TGI is 468 nM.

And the GI50 (SNB-75 CNS)?
The GI50 was 343 nM.

What about the TGI (SNB-75 CNS) of the same compound?
Its TGI is 7570 nM.

And the GI50 (RPMI-8226 leukemia)?
The GI50 was 23.4 nM.

What about the TGI (RPMI-8226 leukemia) of the same compound?
The TGI was 152 nM.

What about the GI50 (UACC-62 melanoma) of the same compound?
Its GI50 is 68.7 nM.

And the TGI (UACC-62 melanoma)?
The TGI was 891 nM.

And the GI50 (SK-MEL-28 melanoma)?
Its GI50 is 347 nM.

What about the TGI (SK-MEL-28 melanoma) of the same compound?
The TGI was 4210 nM.

What about the GI50 (MALME-3M melanoma) of the same compound?
Its GI50 is 115 nM.

And the TGI (MALME-3M melanoma)?
The TGI was 731 nM.

What about the GI50 (MDA-MB-435 melanoma) of the same compound?
Its GI50 is 868 nM.

What about the TGI (MDA-MB-435 melanoma) of the same compound?
Its TGI is 12700 nM.

What about the GI50 (HL-60(TB) leukemia) of the same compound?
Its GI50 is 48.5 nM.

And the TGI (HL-60(TB) leukemia)?
The TGI was 184 nM.

What about the GI50 (M14 melanoma) of the same compound?
The GI50 was 364 nM.

What about the TGI (M14 melanoma) of the same compound?
The TGI was 16300 nM.

And the GI50 (SK-OV-3 ovarian)?
The GI50 was 237 nM.

And the TGI (SK-OV-3 ovarian)?
Its TGI is 1560 nM.

What about the GI50 ([…]-0 renal) of the same compound?
The GI50 was 355 nM.

What about the TGI (786-0 renal) of the same compound?
The TGI was 7360 nM.

What about the GI50 (KM12 colon) of the same compound?
Its GI50 is 330 nM.

What about the TGI (KM12 colon) of the same compound?
Its TGI is 1910 nM.

What about the GI50 (NCI-H226 lung) of the same compound?
Its GI50 is 223 nM.

What about the TGI (NCI-H226 lung) of the same compound?
Its TGI is 1710 nM.

What about the GI50 (IGROV1 ovarian) of the same compound?
The GI50 was 329 nM.

And the TGI (IGROV1 ovarian)?
The TGI was 1390 nM.

And the GI50 (SW-620 colon)?
Its GI50 is 1280 nM.

And the TGI (SW-620 colon)?
Its TGI is 5610 nM.

What about the GI50 (T-47D breast) of the same compound?
The GI50 was 156 nM.

And the TGI (T-47D breast)?
Its TGI is 865 nM.

And the GI50 (NCI-H23 lung)?
The GI50 was 257 nM.

What about the TGI (NCI-H23 lung) of the same compound?
The TGI was 1570 nM.

What about the GI50 (MDA-MB-231 breast) of the same compound?
Its GI50 is 168 nM.

And the TGI (MDA-MB-231 breast)?
The TGI was 2260 nM.

What about the GI50 (ACHN renal) of the same compound?
Its GI50 is 1480 nM.

What about the TGI (ACHN renal) of the same compound?
Its TGI is 11000 nM.

What about the GI50 (DU-145 prostate) of the same compound?
Its GI50 is 1290 nM.

And the TGI (DU-145 prostate)?
Its TGI is 22900 nM.

And the GI50 (UO-31 renal)?
The GI50 was 2560 nM.

And the TGI (UO-31 renal)?
The TGI was > 100000 nM.

And the GI50 (SF-268 CNS)?
Its GI50 is 728 nM.

What about the TGI (SF-268 CNS) of the same compound?
Its TGI is 3490 nM.

And the GI50 (EKVX NSCLC)?
The GI50 was 1510 nM.

What about the TGI (EKVX NSCLC) of the same compound?
The TGI was 11100 nM.

What about the GI50 (NCI-H522 lung) of the same compound?
Its GI50 is 135 nM.

What about the TGI (NCI-H522 lung) of the same compound?
Its TGI is 544 nM.

What about the GI50 (HCT-15 colon) of the same compound?
Its GI50 is 340 nM.

And the TGI (HCT-15 colon)?
Its TGI is 2270 nM.

What about the GI50 (SF-295 CNS) of the same compound?
The GI50 was 1050 nM.

What about the TGI (SF-295 CNS) of the same compound?
The TGI was 7540 nM.

— PubChem BioAssay (NCI)
